Reference: ChEMBL document CHEMBL1144095, “A new labdane diterpenoid from Renealmia alpinia collected in the Suriname rainforest” (1999)

System: Saccharomyces cerevisiae
Assay: Antifungal activity against Saccharomyces cerevisiae
Format: functional

C=C1CC[C@H]2C(C)(C)CCC[C@]2(C)[C@H]1CC1OC(O)C=C1C(=O)O (stereo partly specified)
IC12: 150 µg/mL
